Assays:
[1] = target: T1, guinea pig ileum H1 -receptor histamine (Cavia porcellus, UniProt P31389); assay: Blocking of histamine-induced contractions in the isolated guinea pig ileum; type: cell-based; conditions: calculated, mixed antagonist
T1 construct: isolated guinea pig ileum; from tissue; host or cells: isolated guinea pig ileum
Description: (§1) Compounds of formula I have useful pharmacological properties. In particular, they are potent H1 antihistamines.

[2] = test system: histamine-induced cutaneous capillary permeability; assay: Inhibition of the increment of histamine-induced cutaneous capillary permeability in rats; type: in vivo, rat
Description: as §1

[3] = test system: acetylcholine-induced contractions in isolated guinea pig ileum; assay: Antagonism of acetylcholine-induced contractions in isolated guinea pig ileum; type: cell-based; parameters: dose or concentration left out as unconfirmed
[4] = test system: spontaneous motor activity; assay: Spontaneous motor activity of the rat; type: in vivo; conditions: 100 mg/kg p.o.
ECG / QTc interval = assay: ECG and QTc interval in rats after i.v. administration; type: in vivo, rat; conditions: 20 mg/kg i.v.

T1 sequence (P31389 whole entry): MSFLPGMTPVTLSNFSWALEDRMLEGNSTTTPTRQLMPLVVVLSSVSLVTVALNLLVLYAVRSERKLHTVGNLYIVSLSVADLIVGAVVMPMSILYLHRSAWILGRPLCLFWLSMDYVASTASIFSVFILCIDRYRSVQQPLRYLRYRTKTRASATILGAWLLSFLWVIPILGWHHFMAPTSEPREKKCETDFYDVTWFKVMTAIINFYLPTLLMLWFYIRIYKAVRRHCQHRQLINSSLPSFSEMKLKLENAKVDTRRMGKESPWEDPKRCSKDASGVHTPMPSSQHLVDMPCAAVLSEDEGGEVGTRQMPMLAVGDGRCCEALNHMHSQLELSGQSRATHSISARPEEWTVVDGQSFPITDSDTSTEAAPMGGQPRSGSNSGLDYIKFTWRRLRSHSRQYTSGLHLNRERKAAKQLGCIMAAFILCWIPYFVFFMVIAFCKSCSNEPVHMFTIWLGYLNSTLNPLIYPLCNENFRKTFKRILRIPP

Structure (SMILES): CCOCCn1c(C2CCN(CCc3ccc(C(C)(C)C(=O)O)cc3)CC2)nc2ccccc21 [Ib (R1 =Et), 2-[4-(2-(4-(1-(2-ethoxyethyl)benzimidazole-2-yl)piperidine-1-yl)ethyl)phenyl]-2-methylpropanoic Acid]
- pD2' [1]: 6.50
- Kb ([1]; read-out: pA2 (converted)): 7.94 to 10.5 nM
- duration of significant activity in excess of 50% ([2]; 5 mg/kg p.o.): at least 6 hours
- inhibition at 5 mg/kg ([2]; Rattus norvegicus, po, 5 mg/kg p.o., maintained for at least 6 hours, read-out: activity (inhibition of the increase in capillary permeability)): > 50%
- ED50 ([2]; Rattus norvegicus, po, read-out: DE50, inhibition of the increase in capillary permeability): ~2 mg/kg
- antagonism of acetylcholine-induced contractions [3]: not able to antagonize significantly
- effect on spontaneous motor activity [4]: does not modify
- increase of the QTc interval (ECG / QTc interval): nor does it increase the QTc interval
- morphological ECG disturbance (ECG / QTc interval): induces no morphological ECG disturbance

— patent US5877187A, “Benzimidazole derivatives with antihistaminic activity” (Fabrica Espanola de Productos Quimicos y Farmaceuticos S.A. …, priority 1996, dated 1999)
